In US20120252784A1, “2,3,4-BENZOTHIADIAZEPINE-2,2-DIOXIDE DERIVATIVES” (priority 2009, published 2012):

System: taurine
Experiment: Changes in amino acid neurotransmitter levels in the cortical area of male rats (HPLC, electrochemical detection)
Type: in vivo, rat
Details: male SPDR rats, intraperitoneal, 0.4% aqueous methylcellulose suspension, decapitated 30 minutes after administration, compared to vehicle control group
Protocol: The in vivo biological effectiveness of the compounds of the present invention on the central nervous system was examined by the following experimental model.
Changes in Amino Acid Neurotransmitter Levels in the Cortical Area of Male Rats
Male SPDR rats weighing 200-250 g, were used in the experiments. Changes in the concentration of amino acid neurotransmitters were measured from cortical areas by high-performance liquid chromatography (HPLC) and electrochemical detection.
The investigations were carried out with two experimental groups wherein each group contained 8 animals. One group was administered intraperitoneally by vehicle only (control group). The other group was administered intraperitoneally by the compound of the Example 15, suspended in vehicle. The dose of administration was in the form of 0.4% aqueous methylcellulose suspension.
The animals were decapitated 30 minutes after the administration, brains have been removed and required brain regions were dissected. The tissues were stored at −70° C.
The tissues were homogenized in ice-cold 0.1 M perchlorate in 500 volume excess. […]
The tissue concentrations of the amino acids were measured by standard solutions containing amino acids with known concentration.

SMILES: CN1N=C(c2ccc(F)cc2)c2cc(Cl)ccc2CS1(=O)=O [Example 16, 7-Chloro-5-(4-fluoro-phenyl)-3-methyl-1,3-dihydro-2̂,4-benzothiadiazepin-2,2-dioxide]
- concentrations of the amino acid taurine in the frontal cortex: significantly increased
